Values of other authors in patent US20250319089A1, “STABLE LYOPHILISATES COMPRISING 5,10-METHYLENE-(6R)-TETRAHYDROFOLIC ACID” (Merck Patent GMBH, priority 2022, published 2025).

## Nc1nc2c(c(=O)[nH]1)N1CN(c3ccc(C(=O)N[C@@H](CCC(=O)O)C(=O)O)cc3)C[C@H]1CN2 [5,10-methylene-(6R,S)-tetrahydrofolic acid]
24 hours following dissolution in water
  purity after 24 hours compared to the starting purity: 44.9%
re-constituted lyophilizate, 7 hours
  purity after 7 hours: 84%
re-constituted lyophilizate, linear regression
  loss of purity per hour (degradation rate): 2.3 % purity per hour
